Measurements: US11224565B2, “N-acyldipeptide derivatives and their uses” (NeoStrata Company, Inc., priority 2011, dated 2022)
Where “and” joins values, the source holds several entries; their conditions need not be identical. Identical values can stand only once. Peptide text beside a SMILES is read from it.

Assays:
Type in all cases: in vivo, human
forearm skin = experiment: Skin thickness of forearm by micrometer calipers after topical application; conditions: for appearance of treated left forearm at end of treatment: 1-3% (w/v) in WEP442 topically twice daily for 1-6 weeks as in the example, vehicle forearm still loose, thin and wrinkled; for increase in skin thickness of treated left forearm: 3% (w/v) in WEP442 topically twice daily, vehicle forearm no change
Description: In one of the studies related to skin changes associated with aging, skin thickness was measured by micrometer calipers as follows. The skin was grasped with a 2×6 cm metal hinge; the internal faces of which were coated with emery cloth to prevent slippage, and manually squeezed to threshold subject discomfort. Combined thickness of two whole-skin layers including thickness of the two hinge leaves was measured with micrometer calipers. Thickness of the two hinge leaves was subtracted to determine the actual thickness of two whole-skin layers. Triplicate measurements on treated sites were done and an average number was used for calculation of the skin thickness. In other studies, test sites of skin 17 mm in diameter were used, the circular sites were marked with permanent ink. Intervening control sites were also 17 mm in diameter. Thickness of skin of all sites was measured directly by means of an electronic digital caliper. In this instance the jaws of the caliper were opened to 17 mm, applied with pressure to the skin sites and then closed to firm tightness. Thickness of skin was then read off the screen of the calipers. Measurements of all sites were made in triplicates.

insect bites = experiment: Topical application to insect bite lesions (itch, erythema, inflammation)
Description: A subject, having intensive itch and erythema on their left arm from insect bites, topically applied 10% (w/w) N—Ac-L-Leu-Gly-NH2 cream as formulated in Example 3 on the involved lesions.
A subject had multiple lesions of insect bites (mosquitoes) over the face and arms with itch and inflammatory lesions of more than 1 cm in size. For testing purposes, the subject divided the lesions into three groups: the first group was treated with vehicle control, the second and third groups were treated with active compositions. The subject topically applied twice daily 0.5% (w/v) N—Ac-L-Val-L-Ala-NH2 solution in WEP442, pH 5.9 on the lesions of the second group, and 0.5% (w/v) N—Ac-L-Tyr-L-Tyr-NH2 solution in WEP442, pH 6.7 (Example 5) on the lesions of the third group. […] The lesions in the second and third groups also started to improve over the next few days. At the end of three days, while there was no discernible change in the lesions treated with vehicle control in the first group, the lesions in the second and third groups had 90-100% improvement with nearly complete disappearance of inflammatory lesions.
A subject had multiple lesions of chigger bites (grass mites) over the legs with intensive itch and red inflammatory lesions. The subject topically applied twice daily 0.5% (w/v) N—Ac-L-Val-L-Ala-NH2 solution in WEP442, pH 6.7 (Example 5) on the lesions. […] The lesions on the legs had 100% improvement as judged by clinical evaluation.
In another embodiment, the volunteer subject topically applied the test compositions containing N-acyldipeptide derivatives of the present invention on involved skin or lesions once or twice daily for several weeks or until the involved lesions completely cleared and clinically changed to normal skin. As a control study, the subject also topically applied a vehicle control composition on the involved skin or lesions twice daily for the same period.

[1] = system: pain and inflammation of joints and muscles; experiment: Topical administration for pain and inflammation of sprained leg, shoulder or muscles
Description: A typical example of a topical administration for systemic therapeutic effects was carried out as follows. A subject, having sprained their left leg near the knee with inflammation for several weeks had severe pain each time walking. Massage therapy and conventional treatments provided only a temporary relief. The subject topically applied and rubbed 0.4% (w/v) N—Ac-L-Val-L-Ala-NH2 in WEP442, pH 5.8 as prepared in Example 5 onto the left thigh and calf sites of skin for 30 seconds at night.
The subject topically applied twice daily 0.5% (w/v) N—Ac-L-Tyr-L-Tyr-NH2 in WEP442 solution, pH 6.7 as prepared in Example 5. […] At the end of 5 days, the right shoulder had 90% improvement as determined by clinical evaluation.
The subject topically applied twice daily 0.5% (w/v) N—Ac-L-Val-L-Ala-NH2 in WEP442 solution, pH 6.7 as prepared in Example 5 to the affected area of skin. The pain diminished with less inflammation over the next day.
In yet another embodiment, the volunteer subject topically applied once or twice daily the test compositions containing N-acyldipeptide derivatives of the present invention on the skin site above arthritic joints or painful muscles to provide therapeutic effects for the systemic disorders via topical administration.

[2] = system: skin cut with an open wound; experiment: Topical treatment of skin wound; conditions: 0.5% (w/w) cream twice daily on 2 cm open wound
Excerpt: The subject topically applied twice daily 0.5% (w/w) N—Ac-L-Val-L-Ala-NH2 cream as formulated in Example 2 on the wound. […] At the end of 5 days, the wound had healed nearly completely, and treated skin appeared normal without any signs of scar formation. The wound had 95-100% improvement as judged by clinical evaluation.

stretch marks = experiment: Topical treatment of stretch marks; conditions: twice daily, four weeks; 0.5% (w/w) N-Ac-L-Val-L-Ala-NH2 cream on one lesion, 0.5% (w/v) N-Ac-L-Tyr-L-Tyr-NH2 in WEP442 pH 6.7 on the other
Excerpt: Stretch marks, known as striae, are visible linear scars caused by changes in collagen fibers and over stretching of the skin. Stretch marks are quite common in most adult women, and they readily develop at puberty or during pregnancy. They are also very common in obese people with sudden loss of weight. At present, there is no cure or effective treatment.
A subject, having lost a total of about 60 pounds from overweight over the last 10 years, developed multiple lesions of stretch marks over the body. The subject selected two separate lesions of stretch marks, and topically applied twice daily 0.5% (w/w) N—Ac-L-Val-L-Ala-NH2 cream (Example 2) on one lesion and 0.5% (w/v) N—Ac-L-Tyr-L-Tyr-NH2 solution in WEP442, pH 6.7 (Example 5) on the other lesion with untreated lesions of stretch marks as a control.
At the end of four weeks, the fine lines of stretch marks started to disappear, and deeper lines became less deep. The treated lesions had approximately 25% improvement as judged by clinical evaluation.

[3] = mosquito bites face and arms, twice daily, 0.5% (w/v) N-Ac-L-Val-L-Ala-NH2 in WEP442 pH 5.9 (second group), 0.5% (w/v) N-Ac-L-Tyr-L-Tyr-NH2 in WEP442 pH 6.7 (third group)

| Structure (SMILES) | appearance of treated left forearm at end of treatment (forearm skin) | increase in skin thickness of treated left forearm (forearm skin; after 2 weeks) | increase in skin thickness of treated left forearm (forearm skin; after 3 weeks) [%] | increase in skin thickness of treated left forearm (forearm skin; after 6 weeks) [%] | increase in skin thickness of treated left forearm (forearm skin; after one week) [%] | itch after topical application (insect bites; 0.5% (w/v) in WEP442 pH 6.7 twice daily, chigger bites on legs) | improvement of lesions as judged by clinical evaluation (insect bites; 0.5% (w/v) in WEP442 pH 6.7 twice daily, chigger bites on legs, end of five days) [%] | itch after topical application (insect bites; [3]) | pain on walking ([1]; 0.4% (w/v) in WEP442 pH 5.8 rubbed onto left thigh and calf at night, sprained leg, next morning) | improvement of left leg by clinical evaluation ([1]; 0.4% (w/v) in WEP442 pH 5.8 rubbed onto left thigh and calf for 30 seconds at night, sprained leg, next morning) | muscle pain and inflammation in both arms ([1]; 0.5% (w/v) in WEP442 pH 6.7 topically twice daily, end of five days) | improvement of arms by clinical evaluation ([1]; 0.5% (w/v) in WEP442 pH 6.7 topically twice daily, muscle pain, end of five days) | improvement of wound as judged by clinical evaluation ([2]; end of 5 days) | wound pain after topical application ([2]; left leg) | improvement of treated stretch mark lesions as judged by clinical evaluation (stretch marks) | increase in skin thickness of treated left forearm (forearm skin; after 4 weeks) | pain of sprained right shoulder ([1]; 0.5% (w/v) in WEP442 pH 6.7 topically twice daily, after three days) | improvement of right shoulder by clinical evaluation ([1]; 0.5% (w/v) in WEP442 pH 6.7 topically twice daily, end of 5 days) [%] |
| --- | --- | --- | --- | --- | --- | --- | --- | --- | --- | --- | --- | --- | --- | --- | --- | --- | --- | --- |
| CC(=O)NNC(=O)[C@H](Cc1ccc(O)cc1)NC(=O)[C@H](Cc1ccc(O)cc1)NC(C)=O [N-Ac-L-Tyr-L-Tyr-NHNHAc] | more firm, smooth, plump, and less wrinkled when lifted | 7% | 32 | 23 | 21 |  |  |  |  |  |  |  |  |  |  |  |  |  |
| CC(=O)N[C@H](C(=O)N[C@@H](C)C(N)=O)C(C)C [N-Ac-L-Val-L-Ala-NH2] (Ac-Val-Ala-NH2) |  |  |  |  |  | stopped within a few minutes | 100 | stopped completely within a few minutes | could walk slowly without feeling any pain | approximately 75% | disappeared completely | 95%-100% | 95-100% | stopped within a few minutes | approximately 25% |  |  |  |
| CC(=O)N[C@@H](Cc1ccc(O)cc1)C(=O)N[C@@H](Cc1ccc(O)cc1)C(N)=O [N-Ac-L-Tyr-L-Tyr-NH2] (Ac-Tyr-Tyr-NH2) | more firm, smooth, plump, and less wrinkled when lifted | 13% and 19% | 14 |  |  |  |  | stopped completely within a few minutes |  |  |  |  |  |  | approximately 25% | 17% and 21% | disappeared completely | 90 |
